Here are results for 37 compounds from patent publication US8269043B2, “Bicyclic aryl sphingosine 1-phosphate analogs” (Biogen Idec MA Inc., priority 2008, dated 2012).

The subject of the assay is circulating lymphocytes. The experiment in a line: Lymphopenia assay: circulating lymphocytes after oral gavage. Type of assay: in vivo. The settings on record: Mus musculus, Lymphocyte, po, C57bl/6 male mice, oral gavage 0.5 and 5 mg/kg in 30% HPCD, blood 5 and 24 hours after administration. Here is the method: Measurement of circulating lymphocytes: Compounds were dissolved in 30% HPCD. Mice (C57bl/6 male, 6-10 week-old) were administered 0.5 and 5 mg/kg of a compound via oral gavage. 30% HPCD was included as a negative control.
Blood was collected from the retro-orbital sinus 5 and 24 hours after drug administration under short isoflurane anesthesia. Whole blood samples were subjected to hematology analysis. Peripheral lymphocyte counts were determined using an automated analyzer (HEMAVET™ 3700). Three mice were used to assess the lymphocyte depletion activity of each compound screened.
Compounds of formula (I) induced full lymphopenia at times as short as 3 hours or less to as long as 48 hours or more; for example, 4 to 36 hours, or 5 to 24 hours. In some cases, a compound of formula induced full lymphopenia at 5 hours and partial lymphopenia at 24 hours. The dosage required to induce lymphopenia can be in the range of, e.g., 0.001 mg/kg to 100 mg/kg; or 0.01 mg/kg to 10 mg/kg. The dosage can be 10 mg/kg or less, such as 5 mg/kg or less, 1 mg/kg or less, or 0.1 mg/kg or less
`C[C@](N)(CO)c1ccc2c(C(F)(F)F)c(O[C@H]3CC[C@@H](C4CCCCC4)CC3)ccc2c1` [Example 160, (R)-2-Amino-2-(6-(cis-4-cyclohexylcyclohexyloxy)-5-(trifluoromethyl)naphthalen-2-yl)propan-1-ol]: the ED50 (in general, the dose that gives a 50% effect, or the effect in half of the subjects) was above 5 mg/kg. The result for `C[C@](N)(CO)c1ccc2c(C(F)(F)F)c(O[C@H]3CC[C@H](C4CCCCC4)CC3)ccc2c1` [Example 163, (R)-2-Amino-2-(6-(trans-4-cyclohexylcyclohexyloxy)-5-(trifluoromethyl)naphthalen-2-yl)propan-1-ol] reads below 0.5 mg/kg; that for `CC(C)[C@H]1CC[C@@H](Oc2ccc3cc([C@@](C)(N)CO)ccc3c2C(F)(F)F)CC1` [Example 167, (R)-2-Amino-2-(6-(cis-4-isopropylcyclohexyloxy)-5-(trifluoromethyl)naphthalen-2-yl)propan-1-ol], below 0.5 mg/kg. The result for `CC(C)[C@H]1CC[C@H](Oc2ccc3cc([C@@](C)(N)CO)ccc3c2C(F)(F)F)CC1` [Example 168, (R)-2-Amino-2-(6-(trans-4-isopropylcyclohexyloxy)-5-(trifluoromethyl)naphthalen-2-yl)propan-1-ol] reads below 0.5 mg/kg; that for `C[C@](N)(CO)c1ccc2cc(Oc3cccc(Cl)c3)ccc2c1` [Example 172, (R)-2-Amino-2-(6-(3-chlorophenoxy)naphthalen-2-yl)propan-1-ol], 0.5 to 5 mg/kg; that for `C[C@](N)(CO)c1ccc2cc(Oc3ccc(Cl)cc3)ccc2c1` [Example 173, (R)-2-Amino-2-(6-(4-chlorophenoxy)naphthalen-2-yl)propan-1-ol], 0.5 to 5 mg/kg.

The compound `C[C@](N)(CO)c1ccc2cc(Oc3cccc(Br)c3)ccc2c1` [Example 174, (R)-2-Amino-2-(6-(3-bromophenoxy)naphthalen-2-yl)propan-1-ol] displayed an ED50 above 5 mg/kg.

In turn, `C[C@](N)(CO)c1ccc2cc(Oc3cccc(OC(F)(F)F)c3)ccc2c1` [Example 175, (R)-2-Amino-2-(6-(3-(trifluoromethoxy)phenoxy)naphthalen-2-yl)propan-1-ol] returned an ED50 of 0.5 to 5 mg/kg. The result for `CCc1ccc(Oc2ccc3cc([C@@](C)(N)CO)ccc3c2)cc1` [Example 176, (R)-2-Amino-2-(6-(4-ethylphenoxy)naphthalen-2-yl)propan-1-ol] reads 0.5 to 5 mg/kg; that for `CC(C)c1cccc(Oc2ccc3cc([C@@](C)(N)CO)ccc3c2)c1` [Example 177, (R)-2-Amino-2-(6-(3-isopropylphenoxy)naphthalen-2-yl)propan-1-ol], above 5 mg/kg.

Regarding `CC(C)Cc1ccc(Oc2ccc3cc([C@@](C)(N)CO)ccc3c2)cc1` [Example 178, (R)-2-Amino-2-(6-(4-isobutylphenoxy)naphthalen-2-yl)propan-1-ol], the ED50 was below 0.5 mg/kg. `CC(C)(C)c1ccc(Oc2ccc3cc([C@@](C)(N)CO)ccc3c2)cc1` [Example 179, (R)-2-Amino-2-(6-(4-tert-butylphenoxy)naphthalen-2-yl)propan-1-ol]: the ED50 was in the range of 0.5 to 5 mg/kg. The same measure for `Cc1ccc(Oc2ccc3cc([C@@](C)(N)CO)ccc3c2)cc1` [Example 180, (R)-2-Amino-2-(6-(p-tolyloxy)naphthalen-2-yl)propan-1-ol]: 0.5 to 5 mg/kg. For the compound `C[C@](N)(CO)c1ccc2cc(Oc3ccc(C(F)(F)F)cc3)ccc2c1` [Example 181, (R)-2-Amino-2-(6-(4-(trifluoromethyl)phenoxy)naphthalen-2-yl)propan-1-ol], the 50% effective dose (ED50) was above 5 mg/kg. The result for `CCc1ccccc1Oc1ccc2cc([C@@](C)(N)CO)ccc2c1` [Example 182, (R)-2-Amino-2-(6-(2-ethylphenoxy)naphthalen-2-yl)propan-1-ol] reads 0.5 to 5 mg/kg; that for `C[C@](N)(CO)c1ccc2cc(Oc3ccc(F)c(F)c3)ccc2c1` [Example 183, (R)-2-Amino-2-(6-(3,4-difluorophenoxy)naphthalen-2-yl)propan-1-ol], 0.5 to 5 mg/kg. `Cc1ccc(Oc2ccc3cc([C@@](C)(N)CO)ccc3c2)cc1C` [Example 184, (R)-2-Amino-2-(6-(3,4-dimethylphenoxy)naphthalen-2-yl)propan-1-ol] gave an ED50 above 5 mg/kg. The result for `C[C@](N)(CO)c1ccc2cc(Oc3ccc(F)c(Cl)c3)ccc2c1` [Example 185, (R)-2-Amino-2-(6-(3-chloro-4-fluorophenoxy)naphthalen-2-yl)propan-1-ol] reads 0.5 to 5 mg/kg; that for `C[C@](N)(CO)c1ccc2cc(Oc3cc(F)cc(F)c3)ccc2c1` [Example 186, (R)-2-Amino-2-(6-(3,5-difluorophenoxy)naphthalen-2-yl)propan-1-ol], 0.5 to 5 mg/kg.

In turn, `Cc1cc(C)cc(Oc2ccc3cc([C@@](C)(N)CO)ccc3c2)c1` [Example 187, (R)-2-Amino-2-(6-(3,5-dimethylphenoxy)naphthalen-2-yl)propan-1-ol] had an ED50 of 0.5 to 5 mg/kg. In turn, `CC(C)Oc1ccc(Oc2ccc3cc([C@@](C)(N)CO)ccc3c2)cc1` [Example 189, (R)-2-Amino-2-[6-(4-isopropoxy-phenoxy)-naphthalen-2-yl]-propan-1-ol] yielded an ED50 below 0.5 mg/kg. The compound `NC(CO)(CO)c1ccc2cc(Oc3cccc(C(F)(F)F)c3)ccc2c1` [Example 191, 2-Amino-2-(6-(3-(trifluoromethyl)phenoxy)naphthalen-2-yl)propane-1,3-diol] came in with an ED50 above 5 mg/kg. `NC(CO)(CO)c1ccc2cc(Sc3cccc(OCc4ccccc4)c3)ccc2c1` [Example 192, 2-Amino-2-(6-(3-(benzyloxy)phenylthio)naphthalen-2-yl)propane-1,3-diol] yielded an ED50 below 0.5 mg/kg. The same measure for `NC(CO)(CO)c1ccc2cc(Oc3cccc(OCc4ccccc4)c3)ccc2c1` [Example 194, 2-Amino-2-(6-(3-(benzyloxy)phenoxy)naphthalen-2-yl)propane-1,3-diol]: below 0.5 mg/kg. Take `CCCCCOc1cccc(Oc2ccc3cc(C(N)(CO)CO)ccc3c2)c1` [Example 196, 2-Amino-2-(6-(3-(pentyloxy)phenoxy)naphthalen-2-yl)propane-1,3-diol]: the ED50 is below 0.5 mg/kg. The result for `NC(CO)(CO)c1ccc2cc(Oc3cccc(OCCc4ccccc4)c3)ccc2c1` [Example 197, 2-Amino-2-(6-(3-phenethoxyphenoxy)naphthalen-2-yl)propane-1,3-diol] reads below 0.5 mg/kg; that for `CC(C)CCOc1cccc(Oc2ccc3cc(C(N)(CO)CO)ccc3c2)c1` [Example 198, 2-Amino-2-(6-(3-(isopentyloxy)phenoxy)naphthalen-2-yl)propane-1,3-diol], 0.5 to 5 mg/kg; that for `NC(CO)(CO)c1ccc2cc(Oc3cccc(OCC4CCCCC4)c3)ccc2c1` [Example 199, 2-Amino-2-(6-(3-(cyclohexylmethoxy)phenoxy)naphthalen-2-yl)propane-1,3-diol], below 0.5 mg/kg. The result for `NC(CO)(CO)c1ccc2cc(Oc3cccc(OCCCC(F)(F)F)c3)ccc2c1` [Example 200, 2-Amino-2-(6-(3-(4,4,4-trifluorobutoxy)phenoxy)naphthalen-2-yl)propane-1,3-diol] reads below 0.5 mg/kg; that for `CC(N)(CCC(=O)O)c1ccc2c(C(F)(F)F)c(O[C@H]3CC[C@H](C(C)(C)C)CC3)ccc2c1` (stereo partly drawn) [Example 211, 4-amino-4-(6-(trans-4-tert-butylcyclohexyloxy)-5-(trifluoromethyl)naphthalen-2-yl) pentanoic acid], 0.5 to 5 mg/kg. The same measure for `CC(C)(C)[C@H]1CC[C@H](Oc2ccc3cc([C@@](C)(N)CO)ccc3c2C2CC2)CC1` [Example 215, (R)-2-amino-2-(6-(trans-4-tert-butylcyclohexyloxy)-5-cyclopropylnaphthalen-2-yl)propan-1-ol]: below 0.5 mg/kg; for `Cc1c(O[C@H]2CC[C@H](C(C)(C)C)CC2)ccc2cc([C@@](C)(N)CO)ccc12` [Example 217, (R)-2-amino-2-(6-(trans-4-tert-butylcyclohexyloxy)-5-methylnaphthalen-2-yl)propan-1-ol]: below 0.5 mg/kg; for `C=Cc1c(O[C@H]2CC[C@H](C(C)(C)C)CC2)ccc2cc([C@@](C)(N)CO)ccc12` [Example 219, (R)-2-amino-2-(6-(trans-4-tert-butylcyclohexyloxy)-5-vinylnaphthalen-2-yl)propan-1-ol]: below 0.5 mg/kg. The compound `CC(C)(C)[C@H]1CC[C@H](Oc2ccc3cc([C@@](C)(N)CO)ccc3c2-c2ccc(OC(F)(F)F)cc2)CC1` [Example 221, (R)-2-amino-2-(6-(trans-4-tert-butylcyclohexyloxy)-5-(4-(trifluoromethoxy)phenyl)naphthalen-2-yl)propan-1-ol] showed an ED50 above 5 mg/kg.

Take `CC(C)(C)[C@H]1CC[C@H](Oc2ccc3cc([C@@](C)(N)CO)ccc3c2-c2ccc(S(C)(=O)=O)cc2)CC1` [Example 223, (R)-2-amino-2-(6-(trans-4-tert-butylcyclohexyloxy)-5-(4-(methylsulfonyl)phenyl)naphthalen-2-yl)propan-1-ol]: the ED50 was above 5 mg/kg.

Regarding `CC(C)(C)[C@H]1CC[C@H](Oc2ccc3cc([C@@](C)(N)CO)ccc3c2-c2cncnc2)CC1` [Example 225, (R)-2-amino-2-(6-(trans-4-tert-butylcyclohexyloxy)-5-(pyrimidin-5-yl)naphthalen-2-yl)propan-1-ol], the ED50 was above 5 mg/kg.

As to `CCOc1ccc(-c2c(O[C@H]3CC[C@H](C(C)(C)C)CC3)ccc3cc([C@@](C)(N)CO)ccc23)cc1` [Example 227, (R)-2-amino-2-(6-(trans-4-tert-butylcyclohexyloxy)-5-(4-ethoxyphenyl)naphthalen-2-yl)propan-1-ol], the ED50 was 0.5 to 5 mg/kg.
